Measurements: patent publication US11324757B2, “Pharmaceutical composition for treatment of increased intraocular pressure” (NOVALIQ GMBH, priority 2010, dated 2022)
“And” between values parts separate entries of the source, which are not always exact repeats. Equal values may be shown once. Read-outs that look alike come from different tables or passages of the source. One block for each compound: values may come before it.

Columns and labels:
[1] = descriptive term; cited from earlier work
[2] = Refractive index; assay type: physicochemical; conditions: selected SFA's, neat
[3] = Droplet size (weight and volume) from three droppers; assay type: physicochemical; conditions: 25° C.; for droplet volume, Glass pipette / droplet weight, Glass pipette: 2 mL glass Pasteur pipette; for droplet volume, Glass pipette / droplet volume, Injection needle / droplet volume, Eye dropper: calculated from weight; for droplet weight, Glass pipette / droplet weight, Injection needle / droplet weight, Eye dropper: mean ± SD of 10; for droplet volume, Injection needle / droplet weight, Injection needle: 20 G injection needle; for droplet volume, Eye dropper / droplet weight, Eye dropper: dropper of commercial eye drops (Hylo-Vision)
Method: The droplet size of selected SFA's in terms of weight and volume of droplets from three droppers was determined and compared to that of purified water. The devices used for dispensing the droplets were (a) a 2 mL Pasteur pipette (wall thickness 0.53 mm; external tip diameter: 1.50 mm; length: 150 mm) made of glass, (b) a 20 G (0.9 mm×50 mm) injection needle, and (c) a dropper from a commercial eye drops product (Hylo-Vision). The droplet weights were measured at 25° C. using a laboratory balance; the volumes were calculated. Each test was performed 10 times.

[4] = tested on: E. coli (ATCC 8739); experiment: Antimicrobial preservative effectiveness test (USP 32 <51>); assay type: cell-based, Escherichia coli; conditions: for cfu/mL 0 h / cfu/mL 24 h / cfu/mL 48 h: approx. 22.5° C.
Method: (§1) An antimicrobial preservative effectiveness test in analogy to that of USP 32 <51> was carried out. Sample vials comprising […] or F6H8, respectively, were inoculated with Escherichia coli, Pseudomonas aeruginosa, Staphylococcus aureus, Candida albicans and Aspergillus niger and incubated at approx. 22.5° C.

[5] = tested on: P. aeruginosa (ATCC 9027); experiment: as above; assay type: cell-based, Pseudomonas aeruginosa; conditions: for cfu/mL 0 h / cfu/mL 24 h / cfu/mL 48 h: approx. 22.5° C.
Method: as §1

[6] = tested on: S. aureus (ATCC 6538); experiment: as above; assay type: cell-based, Staphylococcus aureus; conditions: for cfu/mL 0 h / cfu/mL 24 h / cfu/mL 48 h: approx. 22.5° C.
Method: as §1

[7] = tested on: C. albicans (ATCC 10231); experiment: as above; assay type: cell-based, Candida albicans; conditions: for cfu/mL 0 h / cfu/mL 24 h / cfu/mL 48 h: approx. 22.5° C.
Method: as §1

[8] = tested on: A. niger (ATCC 16404); experiment: as above; assay type: cell-based, Aspergillus niger; conditions: for cfu/mL 0 h / cfu/mL 24 h / cfu/mL 48 h / cfu/mL 6 d: approx. 22.5° C.
Method: as §1

[9] = tested on: rabbit eyes (cornea)
[10] = Contact angle (wetting) on compressed drug tablets
[11] = tested on: rabbit eyes (cornea); experiment: Ex-vivo eye irritation test (EVEIT), corneal lesions by abrasion
[12] = typical values for comparison; water at room temperature (RT); cited from earlier work
[13] = Solubility of latanoprost in F4H5/ethanol by HPLC; assay type: physicochemical; conditions: F4H5/ethanol mixture (99:1 by weight), organic solvent or mixture, thermodynamic from solid; in mixture of F4H5 and ethanol (ratio 99:1 by weight)
Method: In a separate experiment, the solubility of latanoprost in a mixture of F4H5 and ethanol (ratio 99:1 by weight) was determined by HPLC according to Ph.Eur.2.2.29 after rotation evaporation of the solvent methyl acetate in vacuo, addition of the solvent under examination of the residue and determination of the dissolved amount.

[14] = on fenofibrate tablet (150 mg, 15-20 kN, 13 mm)
[15] = on trospium chloride tablet (150 mg, 15-20 kN, 13 mm)

Compound: CCCCCCCC(=O)CC[C@@H]1[C@@H](C/C=C\CCCC(=O)O)[C@@H](O)C[C@H]1O [unoprostone]
solubility in water [1]: practically insoluble

Compound: CC(C)OC(=O)CCCC=CCC1C(O)CC(O)C1C=CC(O)COc1cccc(C(F)(F)F)c1 (stereo not shown) [travoprost, propan-2-yl 7-[3,5-dihydroxy-2-[3-hydroxy-4-[3-(trifluoromethyl)phenoxy]-but-1-enyl]-cyclopentyl]hept-5-enoate]
solubility in water [1]: practically insoluble

Compound: CCCCC(F)(F)C(F)(F)C(F)(F)C(F)(F)C(F)(F)C(F)(F)F [Example F6H4]
Refractive index [2]: 1,306

Compound: hyaluronic acid [HA]
morphological and histological evaluation of cornea ([11]; at end of test): entirely clear at the end of the tests, with healthy and smooth surface morphology
Initial size of corneal lesions ([11]; before the test, separate runs): 13.22 mm^2 and 16.03 mm^2 and 14.87 mm^2
healing of corneal lesions ([11]; ex-vivo rabbit eye, 3 days, fluorescein staining): Substantial healing
Change of lesion size ([11]; final vs initial size, 3 days, separate runs): −97.3% and −98.5% and −100%

Compound: CCCCCCCC(F)(F)C(F)(F)C(F)(F)C(F)(F)C(F)(F)C(F)(F)F [Example F6H7]
Refractive index [2]: 1,3366

Compound: O [Water, reference compound]
droplet volume, Glass pipette [3]: 31.3 ± 1.4 µL
droplet weight, Glass pipette [3]: 31.2 ± 1.4 mg
droplet volume, Injection needle [3]: 11.1 ± 0.9 µL
droplet weight, Injection needle [3]: 11.0 ± 0.9 mg
droplet volume, Eye dropper [3]: 36.1 ± 2.2 µL
droplet weight, Eye dropper [3]: 36.0 ± 2.2 mg
Refractive index [12]: 1.333
contact angle [10, 14]: 92.5 °

Compound: CCNC(=O)CCC/C=C\C[C@@H]1[C@@H](/C=C/[C@@H](O)CCc2ccccc2)[C@H](O)C[C@@H]1O [Bimatoprost, (Z)-7-[(1R,2R,3R,5S)-3,5-Dihydroxy-2-[(1E,3S)-3-hydroxy-5-phenyl-1-pentenyl]cyclopentyl]-N-ethyl-5-heptenamide]
solubility in water [1]: slightly soluble

Continued, in another order:

Refractive index [2]: 1,3494
Compound: CCCCCCCCCC(F)(F)C(F)(F)C(F)(F)C(F)(F)C(F)(F)C(F)(F)F [Example F6H9]

Refractive index [2]: 1,3224
Compound: CCCCCCC(F)(F)C(F)(F)C(F)(F)C(F)(F)C(F)(F)C(F)(F)F [Example F6H6]

Refractive index [2]: 1,3432
droplet volume, Glass pipette [3]: 5.0 ± 0.4 µL
droplet weight, Glass pipette [3]: 6.6 ± 0.6 mg
droplet volume, Injection needle [3]: 2.5 ± 0.1 µL
droplet weight, Injection needle [3]: 3.4 ± 0.2 mg
droplet volume, Eye dropper [3]: 10.3 ± 0.3 µL
droplet weight, Eye dropper [3]: 13.7 ± 0.4 mg
Change of lesion size [9]: −100.0%
Final size of corneal lesions [9]: 0.00 mm^2
healing of corneal lesions [9]: all lesions healed fully
contact angle [10, 14]: not measurable
contact angle [10, 15]: not measurable
Compound: CCCCCCCCC(F)(F)C(F)(F)C(F)(F)C(F)(F)C(F)(F)C(F)(F)F [Example F6H8]
cfu/mL 0 h [4]: 1 600 cfu/mL
Change in log steps 24 h [4]: ≤−1.2 log steps
cfu/mL 24 h [4]: <100 cfu/mL
Change in log steps 48 h [4]: ≤−1.2 log steps
cfu/mL 48 h [4]: <100 cfu/mL
cfu/mL 0 h [5]: 1 600 cfu/mL
Change in log steps 24 h [5]: ≤−1.2 log steps
cfu/mL 24 h [5]: <100 cfu/mL
Change in log steps 48 h [5]: ≤−1.2 log steps
cfu/mL 48 h [5]: <100 cfu/mL
cfu/mL 0 h [6]: 2 900 cfu/mL
Change in log steps 24 h [6]: ≤−1.4 log steps
cfu/mL 24 h [6]: <100 cfu/mL
Change in log steps 48 h [6]: ≤−1.4 log steps
cfu/mL 48 h [6]: <100 cfu/mL
cfu/mL 0 h [7]: 1 500 cfu/mL
Change in log steps 24 h [7]: ≤−1.2 log steps
cfu/mL 24 h [7]: <100 cfu/mL
Change in log steps 48 h [7]: ≤−1.1 log steps
cfu/mL 48 h [7]: <100 cfu/mL
cfu/mL 0 h [8]: 1 500 cfu/mL
Change in log steps 24 h [8]: ≤−1.2 log steps
cfu/mL 24 h [8]: <100 cfu/mL
Change in log steps 48 h [8]: ≤−1.2 log steps
cfu/mL 48 h [8]: <100 cfu/mL
Change in log steps 6 d [8]: ≤−1.2 log steps
cfu/mL 6 d [8]: <100 cfu/mL
morphological and histological evaluation of cornea [9]: dense stromata with very few clefts and well-arranged keratocytes

Final size of corneal lesions [9]: >60 mm^2
Initial size of corneal lesions [9]: 16.05 mm^2
healing of corneal lesions [9]: rapid growth of the lesions
Compound: benzalkonium chloride [BAC, reference compound]
morphological and histological evaluation of cornea [9]: complete disintegration of the corneal epithelium

Refractive index [2]: 1,295
Compound: CCC(F)(F)C(F)(F)C(F)(F)C(F)(F)C(F)(F)C(F)(F)F [Example F6H2]

Refractive index [2]: 1,3357
Compound: CCCCCCCC(F)(F)C(F)(F)C(F)(F)C(F)(F)F [Example F4H7]

Refractive index [2]: 1,308
Compound: CCCCC(F)(F)C(F)(F)C(F)(F)C(F)(F)F [Example F4H4]

Refractive index [2]: 1,348
Compound: CCCCCCCCC(F)(F)C(F)(F)C(F)(F)C(F)(F)F [Example F4H8]

Refractive index [2]: 1,334
Compound: CCCCCCC(F)(F)C(F)(F)C(F)(F)C(F)(F)F [Example F4H6]

Refractive index [2]: 1,3204
droplet volume, Glass pipette [3]: 4.7 ± 0.3 µL
droplet weight, Glass pipette [3]: 6.0 ± 0.4 mg
droplet volume, Injection needle [3]: 2.0 ± 0.3 µL
droplet weight, Injection needle [3]: 2.6 ± 0.4 mg
droplet volume, Eye dropper [3]: 9.6 ± 0.2 µL
droplet weight, Eye dropper [3]: 12.4 ± 0.2 mg
penetration into the cornea (OCT imaging) [9]: no indication of penetration
contact angle [10, 14]: not measurable
contact angle [10, 15]: not measurable
Compound: CCCCCC(F)(F)C(F)(F)C(F)(F)C(F)(F)F [Example F4H5]
cfu/mL 0 h [4]: 1 600 cfu/mL
Change in log steps 24 h [4]: ≤−1.2 log steps
cfu/mL 24 h [4]: <100 cfu/mL
Change in log steps 48 h [4]: ≤−1.2 log steps
cfu/mL 48 h [4]: <100 cfu/mL
cfu/mL 0 h [5]: 1 600 cfu/mL
Change in log steps 24 h [5]: ≤−1.2 log steps
cfu/mL 24 h [5]: <100 cfu/mL
Change in log steps 48 h [5]: ≤−1.2 log steps
cfu/mL 48 h [5]: <100 cfu/mL
cfu/mL 0 h [6]: 2 900 cfu/mL
Change in log steps 24 h [6]: ≤−1.4 log steps
cfu/mL 24 h [6]: <100 cfu/mL
Change in log steps 48 h [6]: ≤−1.4 log steps
cfu/mL 48 h [6]: <100 cfu/mL
cfu/mL 0 h [7]: 1 500 cfu/mL
Change in log steps 24 h [7]: ≤−1.2 log steps
cfu/mL 24 h [7]: <100 cfu/mL
Change in log steps 48 h [7]: ≤−1.1 log steps
cfu/mL 48 h [7]: <100 cfu/mL
cfu/mL 0 h [8]: 3 000 cfu/mL
Change in log steps 24 h [8]: ≤−1.4 log steps
cfu/mL 24 h [8]: <100 cfu/mL
Change in log steps 48 h [8]: ≤−1.2 log steps
cfu/mL 48 h [8]: <100 cfu/mL
Change in log steps 6 d [8]: ≤−1.2 log steps
cfu/mL 6 d [8]: <100 cfu/mL
morphological and histological evaluation of cornea [9]: entirely clear at the end of the tests, with healthy and smooth surface morphology
tolerability by the eye [9]: better tolerated than culture medium

solubility [13]: 57 µg/mL
Compound: CC(C)OC(=O)CCC/C=C\C[C@@H]1[C@@H](CC[C@@H](O)CCc2ccccc2)[C@H](O)C[C@@H]1O [latanoprost, isopropyl-(Z)-7[(1R,2R,3R,5S)3,5-dihydroxy-2-[(3R)-3-hydroxy-5-phenylpentyl]cyclopentyl]-5-heptenoate]
solubility in water [1]: practically insoluble
